Reference: patent publication US20040127468A1, “Methods and compositions for treating apoptosis associated disorders” (priority 2001, published 2004)

Key:
[1] = system: cerebellar granule neurons; test: Nuclei with chromatin condensation (YOYO-1 staining) in cerebellar granule neurons after glutamate; format: cell-based, rat; conditions: apoptosis initiating insult: Glutamate
Method: (§1) Cerebellar granule neurons were obtained from postnatal day 7 rat pups by enzymatic digestion and maintained in serum supplemented Eagle's Basal medium. Viable cells were plated at a density of 500,000 cells/ml onto poly-L-lysine coated tissue culture plastic or glass coverslips. Cytosine arabinoside (Ara-C) (10 μM) was added at 24 hours to halt glial proliferation. To induce apoptosis in the cerebellar granule neurons, 10^−4 to 10^−6 M glutamate was added on day 7 to the culture.
(§2) Percentages of cells with apoptotic nuclei were determined for cells grown on poly-L-lysine treated coverslips (density 1×10^4/coverslip). […] The total number of YOYO-1 stained nuclei with chromatin condensation were counted on twenty-five 40× fields for each coverslip, each field chosen by pairs of randomly-generated x-y coordinates. The proportion of nuclei with chromatin condensation were expressed as a percentage of the total number of cells in each field. […]
(§3) The capacity of phosphatidic acid to increase survival, decrease apoptosis and maintain mitochondrial membrane potential was determined by counting intact nuclei as an indicator of cell survival, determining the percentages of cells with nuclear chromatin (DNA) condensation by staining cells with YOYO-1, a nucleic acid binding dye, and measuring mitochondrial potentiometric dye fluorescence by imaging them with florescence microscopy.

[2] = system: NGF differentiated PC12 cells; test: Mitochondrial membrane potential by potentiometric dye fluorescence (TMRM, CMTMR) in NGF differentiated PC12 cells; format: cell-based
Method: Live cell ΔψM measurement: Cells on polylysine coated coverglass were incubated with 100 nM tetramethylrodaminemethylester (TMRM, Molecular probes, Eugene, Oreg.) or 10 μg/ml JC-1 (Molecular Probes, Eugene, Oreg.) to provide an estimate of ΔψM. The coverslips were transferred to a gas and temperature controlled circulating live cell chamber (Medical Systems Corp., Greenvale, N.Y.). A thermocoupler immersed in the medium maintained the media temperature at 37±0.1° C. TMRM, JC-1 and chloromethyltetramethylrosamine (CMTMR, Molecular probes, Eugene, Oreg.) and JC-1 stained cells were imaged 10 minutes following dye addition and images were collected every 3 minutes for approximately 20 minutes.
Fixed cell ΔψM Measurement. After treatment of NGF differentiated PC12 cells on poly-L-lysine coated 12 mm coverslips, the fixable potentiometric dye, CMTMR, was added at 137 nM for 15 minutes at 37° C. and simultaneous immunocytochemistry was performed. The cells were then rinsed once with warm Dulbecco's PBS prior to overnight fixation with ice cold 4% paraformaldehyde in PB and mounted onto slides with the aqueous mounting medium, Aquamount (Gallard-Schlesinger Ind., Garden City, N.Y.).
Florescence Microscopy. Images were obtained using a Leica TCS4D confocal microscope coupled to an argon-krypton laser or a standard epi-floresence microscope. The images were scanned or imaged using an oil immersion 100×1.4 N.A. objective to minimize focal depth. CMTMR and TMRM treated cells were imaged using 568 nm excitation and detected with 600/30 nm band pass filter. The JC-1 incubated cells were imaged using 488 nm excitation and detected using 530/30 nm band pass and 590 nm long pass filters observed by separate detectors. Image resolution was 512×512×8 bits per pixel. […] To measure the intensity of mitochondrial potentiometric dye fluorescence, pixel intensity measurements from 20-40 mitochondria from each of 50-70 cells per treatment, per experiment were obtained by placing a 3×3 pixel box at 2 points in each mitochondrion. The fluorescence intensity values were automatically exported to an Excel spreadsheet for subsequent analysis in MicroCal Origin (Northampton, Mass.). […]
as §3

[3] = system: NGF differentiated PC12 cells; test: Nuclei with chromatin condensation (YOYO-1 staining) in NGF differentiated PC12 cells; format: cell-based
Method: PC12 cells (ATCC, Manassas, Md.) were propagated in minimum essential medium (MEM) containing 10% horse serum, 5% fetal bovine serum, 2 mM L-glutamine, 50 units/ml penicillin, and 50 μg/ml streptomycin (MEM with serum, MIS), all purchased from Life Technologies (Rockville, Md.). The cells were grown on 24 well plates (8×10^4 cells/well) for counting of intact nuclei as an estimate of survival, poly-L-lysine treated coverslips (1×10^4 cells/coverslip) for imaging with epiflorescence microscopy or laser confocal scanning microscopy (LCSM) or 100 mm dishes (1×10^6 cells/plate) for protein chemistry. The cells were differentiated for 6 days in M/S supplemented with 100 ng/ml 7S NGF (Upstate Biotech., Lake Placid, N.Y.). MEM with serum and NGF is abbreviated as M/S+N (see (Tatton et al., 1994, J. Neurochemistry, 63:1572-1575; Wadia et al., J. Neuroscience, 1998, 18: 932-947; Carlile et al., 2000, Molecular Pharmacology, 57:2-12) for further details of culture and treatment). […]
as §2, §3

[4] = system: NGF differentiated PC12 cells; test: Survival of NGF differentiated PC12 cells after apoptosis initiating insult (counting intact nuclei); format: cell-based
Method: PC12 cells (ATCC, Manassas, Md.) were propagated in minimum essential medium (MEM) containing 10% horse serum, 5% fetal bovine serum, 2 mM L-glutamine, 50 units/ml penicillin, and 50 μg/ml streptomycin (MEM with serum, MIS), all purchased from Life Technologies (Rockville, Md.). The cells were grown on 24 well plates (8×10^4 cells/well) for counting of intact nuclei as an estimate of survival, poly-L-lysine treated coverslips (1×10^4 cells/coverslip) for imaging with epiflorescence microscopy or laser confocal scanning microscopy (LCSM) or 100 mm dishes (1×10^6 cells/plate) for protein chemistry. The cells were differentiated for 6 days in M/S supplemented with 100 ng/ml 7S NGF (Upstate Biotech., Lake Placid, N.Y.). MEM with serum and NGF is abbreviated as M/S+N (see (Tatton et al., 1994, J. Neurochemistry, 63:1572-1575; Wadia et al., J. Neuroscience, 1998, 18: 932-947; Carlile et al., 2000, Molecular Pharmacology, 57:2-12) for further details of culture and treatment). Serum and NGF Withdrawal: Following incubation for 6 days in MEM with serum and NGF, cells underwent three successive washes in Hanks' Balanced Salt Solution (HBSS; Life Technologies, Rockville, Md.) to remove NGF and serum-borne trophic agents and then were replaced into MEM with serum and NGF for controls or into MEM without serum and NGF to induce apoptosis by serum and NGF withdrawal. C2-Ceramide, Rotenone, Peroxide, and Atractyloside Exposure: After 6 days of exposure to serum and NGF, cultures maintained in MEM with serum and NGF were treated for 24 hours with either vehicle (HBSS) as a control, or concentrations of C2-ceramide in HBSS varying from 2 to 50 μM, concentrations of rotenone in BSS varying from 2 to 50 nM, concentrations of H2O2 in HBSS varying from 0.01 to 0.25 mM H2O2 or concentrations of atractyloside in HBSS varying from 2 to 20 mM. Both cell survival and the percentages of cells with evidence of apoptotic nuclear degradation were assessed for all treatments. To estimate survival, the cells were seeded at a density of 8×10^4 cells/well in 24 well plates. Cells were harvested 24 hours after treatment and lysed. Intact nuclei were counted using a hemocytometer (see see (Tatton et al., 1994, J. Neurochemistry, 63:1572-1575; Wadia et al., J. Neuroscience, 1998, 18: 932-947; Carlile et al., 2000, Molecular Pharmacology, 57:2-12) for details of treatment and counting methods). The capacity of phosphatidic acid to increase survival, decrease apoptosis and maintain mitochondrial membrane potential was determined by counting intact nuclei as an indicator of cell survival, determining the percentages of cells with nuclear chromatin (DNA) condensation by staining cells with YOYO-1, a nucleic acid binding dye, and measuring mitochondrial potentiometric dye fluorescence by imaging them with florescence microscopy.

[5] = system: cerebellar granule neurons; test: Survival of cerebellar granule neurons after glutamate (counting intact nuclei); format: cell-based, rat; conditions: apoptosis initiating insult: Glutamate
Method: as §1
Both cell survival and the percentages of cells with evidence of apoptotic nuclear degradation were assessed for all treatments. […] Intact nuclei were counted using a hemocytometer (see see (Tatton et al., 1994, J. Neurochemistry, 63:1572-1575; Wadia et al., J. Neuroscience, 1998, 18: 932-947; Carlile et al., 2000, Molecular Pharmacology, 57:2-12) for details of treatment and counting methods).
as §3

[6] = apoptosis initiating insult: Serum and NGF Withdrawal

phosphatidic acid [PA]
PA Decreases Nuclei With Chromatin Condensation [1]: Yes | PA Reduces Decreases In Mitochondrial Membrane Potential ([2]; apoptosis initiating insult: Ceramide, dyes TMRM and CMTMR, listed as phosphatidic acid): reduces | PA Reduces Decreases In Mitochondrial Membrane Potential ([2]; apoptosis initiating insult: Rotenone, dyes TMRM and CMTMR): Yes - FIG. 4C | PA Reduces Decreases In Mitochondrial Membrane Potential ([2]; apoptosis initiating insult: Rotenone, dyes TMRM and CMTMR, listed as phosphatidic acid): reduces | PA Reduces Decreases In Mitochondrial Membrane Potential [2, 6]: Yes | PA Decreases Nuclei With Chromatin Condensation ([3]; apoptosis initiating insult: Ceramide): Yes | PA Decreases Nuclei With Chromatin Condensation ([3]; apoptosis initiating insult: Rotenone): Yes | PA Decreases Nuclei With Chromatin Condensation [3, 6]: Yes | increase of cell survival by varying concentrations of phosphatidic acid ([4]; after exposure to 0.1 mM H2O2 which kills about 60% of the cells (FIG. 3C)): does not substantially increase | PA reduced apoptosis ([4]; apoptosis initiated by peroxide or atractyloside, 2 to 30 μM PA): not | PA Increases Survival ([4]; apoptosis initiating insult: Atractyloside, 24 hours): No | PA Increases Survival ([4]; apoptosis initiating insult: Ceramide (C2-ceramide), 24 hours): Yes - FIG. 2A | PA Increases Survival ([4]; apoptosis initiating insult: Ceramide (C2-ceramide), 24 hours, listed as Phosphatidic acid): increase cell survival | PA Increases Survival ([4]; apoptosis initiating insult: Peroxide (H2O2), 24 hours, listed as phosphatidic acid): does not alter survival | PA Increases Survival ([4]; apoptosis initiating insult: Rotenone, 24 hours, listed as Phosphatidic acid): increase cell survival | PA Increases Survival [4, 6]: Yes - FIG. 3B | PA Increases Survival ([4]; apoptosis initiating insult: Serum and NGF Withdrawal, listed as Phosphatidic acid): increase cell survival | PA Increases Survival [5]: Yes | PA Increases Survival ([5]; listed as Phosphatidic acid): increase cell survival
